# According to patent publication US9649313B2, “Use of ITK inhibitors for the treatment of cancer” (The University of North Carolina at Chapel Hill, priority 2012, dated 2017):
# Target: T1, MST1 (Homo sapiens, UniProt Q13043)
# T1 construct: purchased Carna Biosciences
# T1 sequence (Q13043 1-487): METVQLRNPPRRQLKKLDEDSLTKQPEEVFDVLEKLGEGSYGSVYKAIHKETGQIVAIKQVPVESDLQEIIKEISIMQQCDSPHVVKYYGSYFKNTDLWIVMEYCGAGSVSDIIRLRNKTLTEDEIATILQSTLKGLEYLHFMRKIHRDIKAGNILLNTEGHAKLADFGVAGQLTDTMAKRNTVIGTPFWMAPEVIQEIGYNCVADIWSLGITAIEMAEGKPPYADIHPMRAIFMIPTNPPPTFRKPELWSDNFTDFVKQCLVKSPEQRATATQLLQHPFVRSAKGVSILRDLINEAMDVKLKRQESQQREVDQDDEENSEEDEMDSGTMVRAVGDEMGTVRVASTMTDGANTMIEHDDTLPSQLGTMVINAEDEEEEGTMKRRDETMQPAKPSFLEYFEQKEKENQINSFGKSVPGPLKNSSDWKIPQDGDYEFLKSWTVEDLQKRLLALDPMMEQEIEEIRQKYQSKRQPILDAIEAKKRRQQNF
# Test: cell-free kinase assay
# Assay type: biochemical
# Excerpt: We investigated the potency and selectivity of BI 10N against 56 kinases using a cell-free assay (Table 8A).
# The selectivity of this inhibitor was investigated by testing the potency of the inhibitor at two concentrations with 53 kinases by Carna Biosciences (MA) (Table 2).
smiles,measurement,setting,value
C[C@]12O[C@H](C[C@]1(O)C(=O)O)n1c3ccccc3c3c4c(c5c6ccccc6n2c5c31)CNC4=O [K252b],IC50,ATP concentration at approximately the Km for ATP,3.43 nM
same,IC50,"Table 2, by Carna Biosciences",3.43 nM
